Results taken from patent US20260306463A1, “SIK INHIBITORS TO TREAT CHRONIC KIDNEY DISEASE” (The General Hospital Corporation, priority 2023, published 2026).
Entries after “also recorded” stand apart in the source; their conditions may differ. Values belong to the compound of their own block, whether it stands above or below them.

Assays:
[1] = system: YAP/TAZ responsive reporter; assay: YAP/TAZ responsive luciferase reporter assay; type: cell-based, mouse (NIH3T3 cells); settings: 24 hours; for TGFß-stimulated YAP/TAZ reporter activity: TGFß stimulation
Procedure: FIGS. 14A-14E. SIK pathway controls YAP/TAZ-dependent myofibroblast activation in kidney Gli1 cells. KGlil cells were treated as indicated for 48 hours followed by (A) immunoblotting and (B) RT-qPCR. (C) KGlil cells were treated±TGFß (5 ng/mL) or verteporfin (1 μM) for 48 hours followed by imnunoblotting. (D) Luciferase assay from cells were transfected with a YAP/TAZ responsive reporter. SIK inhibitor and forskolin both block basal and TGFß-stimulated-YAP/TAZ reporter activity. (E) Top, KGlil cells were treated for 24 hours as indicated followed by immunoblotting. Bottom, kidney lysates from adenine diet CKD mice were analyzed by immunoblotting as indicated.
To assess the signal of YAP/TAZ responsive reporter, the mouse fibroblast cell line NIH3T3 cells were transfected 24 hours after plating at 50,000 cells/ml in a 10 cm dish by using 15 μl Polyjet transfection reagent (SignaGen Laboratories, SL100688) and 5 μg of 8xGTIIC-luciferase construct. 48 hours after, the cells were then trypsinized and plated on a black 96-well plate and treated the next day for 24 hours. The luciferase and renilla signals were read using Renilla Luciferase Assay System kit (Promega, E2810) and EnVision plate reader (PerkinElmer).

human kidney organoids = assay: cisplatin injury of human kidney organoids: immunostaining, organoid size; type: cell-based; settings: intermittent cisplatin, 5 treatments
Procedure: FIG. 7. SK-124 preserves human kidney organoid integrity in cisplatin injury model. Human kidney organoids derived from H9 embryonic stem cells were treated with intermittent cisplatin (5 separate treatments) based on published protocols along with the indicated agent. Organoids were cryo-sectioned and immuno-stained with the indicated markers. The top panels show low power images and the bottom panels focus on regions of proximal tubule cells. The graph measures the mean diameter of organoids in the control (no cisplatin), cisplatin+DMSO, and cisplatin+SK-124 treatment groups.
BJFF human induced pluripotent stem cells (hPSCs) were maintained on Geltrexcoated (Thermo Fisher Scientific) plates using StemFit Basic04 Complete (Ajinomoto Co. Inc.) as previously reported(25). The cells were passaged weekly using Accutase (STEMCELL Technologies) for dissociation and Y27632 (Tocris) for adhesion. Directed differentiation of hPSCs into kidney organoids has been published elsewhere (29). Briefly, hPSCs were differentiated into metanephric mesenchyme cells on day 8 by a three-step directed differentiation protocol. Metanephric mesenchyme was transferred into suspension culture in 96-well ultralow adhesion plates (Coming) and further differentiated into kidney organoids, as previously reported(25). Quality control measures of SIX2 immunostaining on day 8 of differentiation and CDH1, LTL, PODXL, CD146, MEIS1/2/3, and SYTOX-blue staining on day 21 were performed on all batches of kidney organoids to limit batch-to-batch heterogeneity. Kidney organoids were maintained in 200 μl of basal media consisting of Advanced RPMI (Thermo Fisher Scientific) and GlutaMAX (Thermo Fisher Scientific) in 96-well plates, as previously reported. Media changes were conducted three times weekly with removal of 90 [l and addition of 100 μl of fresh basal media.
For cisplatin induced injury, day 49 organoids were treated with 5 μM cisplatin in basal media after full media change. After 24 hours, full media exchanges were performed. This 24-hour treatment was performed twice a week, on day 52-53, day 56-57, day 59-60, and day 63-64 as well, for a total of five cisplatin treatments. Samples were obtained for RT-qPCR and immunostaining immediately following each 24-hour treatment with cisplatin, and from corresponding controls.
Following the treatment, the organoids were collected and immediately fixed in 4% PFA in PBS for 1 hour at room temperature, submerged in 30% sucrose overnight at 4° C., then embedded in O.C.T. Compound (4585. Fisher HealthCare). Subsequently, […] frozen sections were prepared via cryo-sectioning by a cryostat. After 1 hr blocking at room temperature, the sections were treated overnight at 4° C. with primary antibodies in antibody dilution buffer (ADB) with biotinylated LTL (1:200, B-1325, Vector), rat anti-CDH1 (1:500, ab11512, Abcam), goat anti-PODXL (1:500, AF1658, R&D Systems), as well as the antibody of interest, either mouse anti-p21 (1:200, NBP2-43697, Novus Biologicals), or rabbit anti-γH2AX (1:100, 2577, Cell Signaling) antibodies. For the optimum labeling of LTL by biotin/streptavidin interaction, the Streptavidin/Biotin Blocking Kit (SP-2002, Vector Laboratories) was applied according to the manufacturer's instructions. After washing, the samples were stained for 1 hour at RT with the nuclear dye-SYTOX Blue (1:500. S 11348, Invitrogen) and the corresponding secondary antibodies in ADB such as streptavidin-AF750 (1:500, S21384, Invitrogen), donkey anti-rat IgG-AF594 (1:500, A21209, Invitrogen), donkey anti-goat IgG-AF555 (1:500, A21432, Invitrogen), and donkey anti-rabbit IgG-AF488 (1:500, A21206, Invitrogen) for γH2AX or donkey anti-mouse IgG-AF488 (1:500, A21202, Invitrogen) for p21 antibodies as well as mouse anti-Meisl/⅔ (1:200, sc-101850, SantaCruz) conjugated antibody, and slides were mounted with Vectashield antifade mounting medium (H1000, Vector Laboratories). […]

kidney = settings: literature (ref. 21); cited from earlier work
[2] = system: renal fibrosis, adenine-induced CKD mice; assay: renal fibrosis in adenine CKD mice (trichrome, immunoblot, RT-qPCR); type: in vivo, mouse; settings: adenine diet; SK-124 40 mg/kg oral
Procedure: FIGS. 3A-3C. SK-124 treatment reduces fibrosis in adenine-induced chronic kidney disease. (A) Representative trichrome stained sections from the indicated groups. Darker staining indicates fibrosis which is increased in vehicle-treated adenine diet mice and reduced by SK-124 treatment. (B) Kidney protein lysates were isolated and analyzed by immunoblotting for alpha-smooth muscle actin (αSMA) (top) and GAPDH (bottom). (C) Whole kidney RNA from the indicated groups was analyzed by RT-qPCR for the indicated fibrosis marker.
7-week-old female CD1 mice were obtained from Charles River Laboratories (Wilmington, MA) and were fed on 0.2% adenine containing diet (TD.130900; 0.2% Adenine, 0.9% Phosphate, 0.5% Calcium; Envigo) or control diet (TD. 96348) for 6 or 8 weeks to induce chronic kidney disease (CKD). Mice were oral gavaged with 40 mg/kg SK-124, or intraperitonially injected with 80 μg/kg PTH, or treated with vehicle 5 days a week for the duration of the special diet.
(§1) cDNA was prepared using Primescript RT kit (Takara Inc), with 750 ng RNA per reaction. RT-qPCR was performed by using PerfeCa® SYBR® Green FAstMix® ROX (Quanta bio) in the StepOnePlus™ Real-time PCR System (Applied Biosystems). Hmbs was used as a control housekeeping gene for mouse samples, and B-Actin was used for organoids, relative expression was calculated (2^-deltaCT method) and compared to the mean of control group if necessary. Primers used for RT-qPCR are listed in Table 2 (mouse primers) and Table 3 (human primers).
(§2) Snap-frozen kidneys were homogenized in NP-40 lysis buffer (FNN0021, Thermo) with using TissueLyserII at 30 Hz for 5 minutes. Samples were rotated at 4 deg for 20 minutes and frozen on dry ice and thawed. After centrifuging for 30 minutes at 4 deg, the supernatants were collected. After determining the protein concentration by Bradford assay, […] of protein was loaded for western blotting. For KGli cells, the cells were washed with cold PBS then scraped into TNT buffer (Tris-NaCl-Tween buffer, 20 mM Tris-HCl pH 8, 200 mM NaCl, 0.5% Triton X-100 containing 1X-protease inhibitor cocktail (Bimake Inc. 100X, Cat. #B14001), 1 mM DTT, 1 mM NaF, 1 mM Vanadate (New England Biolabs)). Next, samples were vortexed for 1 minute and centrifuged at 14,000g for 6 minutes at 4 deg, and the supernatant was collected.
(§3) For immunoblotting, the lysates were separated by SDS-PAGE (Bio-rad precast gels), and proteins were transferred to the nitrocellulose membranes. Then, the membranes were blocked in 5% milk in tris-buffered saline plus 0.05% Tween-20 (TBST) and incubated with primary antibody in 5% BSA-TBST overnight at 4° C. Next day, after washing, membranes were incubated with anti-rabbit HRP-coupled secondary antibody (1:2500, Cell Signaling Technology, 7074S) or anti-mouse HRP-coupled secondary antibody (1:2500, Cell Signaling, 7076S), and signals were detected with SuperSignal West Femto Maximum Sensitivity Substrate (Thermo scientific) using the iBright imager (ThermoFisher). The antibodies used are: SIK2 (1:1000, Cell Signaling, 6919), GAPDH (1:1000, Cell Signaling, 2118), αSMA (1:1000, Invitrogen, 14-9760-82), pSMAD3 (1:1000, Cell Signaling, 9520), and SMAD⅔ (1:1000, Cell Signaling, 8685).
Hematoxylin and eosin (H+E) staining was performed on some sections using standard protocols and Masson's Trichome stain for fibrosis was performed according to the manufacturer's instructions (ab150686, abcam). Formalin-fixed paraffin embedded sections were also used for in situ hybridization according to the manufacturer instructions (ACDbio). Briefly, the sections were blocked with hydrogen peroxide for 10 minutes at room temperature, followed by antigen retrieval with Pepsin (R2283, Sigma-Aldrich) in humidified chamber in 40° C. HybEZ oven. The Sik1 (526411, ACD), Sik2 (526421, ACD), or Sik3 (526431, ACD) probe was added to the sections for 2 hours in the humidified chamber at 40° C. Then, the signal was amplified (322310, ACD) and detected using Brown DAB kit (322310, ACD). […]

[3] = system: SIK isoforms (Sik1, SIK2, Sik3); assay: SIK isoform expression in kidneys of adenine diet mice (immunoblot, RT-qPCR, RNAscope); type: in vivo, mouse
Procedure: FIGS. 2A-2C. SIK isoform expression in adenine-induced chronic kidney disease. (A) Kidney protein lysates were isolated and analyzed by imnunoblotting for SIK2 (top) and GAPDH (bottom). SIK2 protein levels are increased in adenine diet. (B) Whole kidney RNA from the indicated groups was analyzed by RT-qPCR for the indicated SIK isoform. (C) Kidney sections from control and CKD (6 weeks adenine diet) were stained using RNAscope (darker shade) for the indicated SIK isoform.
as §1, §2
as §3, with “The antibodies used are: SIK2 (1:1000, Cell Signaling, 6919), GAPDH (1:1000, Cell Signaling, 2118), αSMA (1:1000, Invitrogen, 14-9760-82), pSMAD3 (1:1000, Cell Signaling, 9520), and SMAD⅔ (1:1000, Cell Signaling, 8685).” left out
Hematoxylin and eosin (H+E) staining was performed on some sections using standard protocols and Masson's Trichome stain for fibrosis was performed according to the manufacturer's instructions (ab150686, abcam). […] Then, the signal was amplified (322310, ACD) and detected using Brown DAB kit (322310, ACD).

[4] = system: whole kidney transcriptome; assay: bulk RNA-sequencing of whole kidney, adenine CKD mice; type: in vivo, mouse; settings: bulk RNA-seq; adenine vs control diet, or SK-124 vs vehicle in CKD mice
Procedure: FIGS. 6A-6F. The effects of SK-124 treatment at the transcriptomic level in adenine-induced mouse chronic kidney disease. RNA-seq was performed on whole kidney RNA samples (n=7/group) from FIG. 1. Volcano plot show gene regulated (>2-fold change, p(adj)<0.05) by CKD (versus control diet, A) or in CKD by SK-124 (versus vehicle control, B). In Volcano plot, representative fibrosis markers (Col3a1, Vim, Serpinel) and proximal tubule integrity (Lrp2. Atplai, and Hnf4a) are shown. Scatterplot (C) and heatmap (D) showing integration of individual RNA-seq comparisons. […] (E) Single cell RNA-sequencing was performed on dissociated kidneys from adenine diet fed mice treated with vehicle or SK-124 (n=4/group). […] (F) Relative cellularity of each annotated cluster is shown in pie chart format for adenine+vehicle (CKD-Veh) or adenine+SK-124 (CKD-SK-124) mice.
Isolated RNA samples from the mouse adenine diet study and human kidney organoid experiment were submitted to Novogene and bulk-RNA sequencing on NovaSeq X Plus Ilumina Novoseq Platform. Sequencing reads were mapped to the mouse reference genome (mm10/GRCm38) or human reference genome (GRCh38/hg38) using Salmon and differential gene expression analysis was performed using DESeq2.

[5] = whole kidney RNA, RT-qPCR, 6 weeks adenine diet

Compound: 2-[2,6-Dimethoxy-4-[7-(1-methylpyrazol-4-yl)imidazo[1,2-a]pyridin-3-yl]phenyl]-5-ethyl-1,3,4-oxadiazole [SK-124]
basal YAP/TAZ reporter activity [1]: block
TGFß-stimulated YAP/TAZ reporter activity [1]: block

Compound: C=C1/C(=C\C=C2/CCC[C@]3(C)[C@@H]([C@H](C)CCCC(C)(C)O)CC[C@@H]23)C[C@@H](O)C[C@@H]1O [calcitriol, 1,25-dihydroxy-vitamin D, reference compound]
patterns of cisplatin-induced injury (human kidney organoids): minimal effects
anti-fibrotic effects in kidney (kidney): anti-fibrotic effects in kidney

basal YAP/TAZ reporter activity [1]: block
TGFß-stimulated YAP/TAZ reporter activity [1]: block
Compound: C=C[C@@]1(C)CC(=O)[C@]2(O)[C@@]3(C)[C@@H](O)CCC(C)(C)[C@@H]3[C@H](O)[C@H](OC(C)=O)[C@@]2(C)O1 [forskolin, reference compound]

Sik1 expression [3, 5]: increased
Sik2 expression [3, 5]: increased
Sik3 expression [3, 5]: trends towards increased
Compound: Nc1ncnc2nc[nH]c12 [adenine]
fibrosis (trichrome staining) [2]: increased
SIK2 protein level ([3]; kidney lysates, immunoblot, 0.2% adenine diet, 6 weeks): increased; also recorded: robust SIK2 upregulation
injury markers (Col3a1, Vim, Serpine1) [4]: upregulated
markers of intact proximal epithelial cells (Lrp2, Atpla1, Hnf4a) / epithelial cell integrity [4]: reduced
